Columns and labels:
[1] = Microtitre plate insoluble aggregate test: time for A350 to increase by 0.2 AU at 65° C.; format: physicochemical; conditions: cation chlorides 50-500 mM, albumin 10 mg/mL, pH 6.43, 65° C.
Procedure: The microtitre plate was gently rocked to mix the contents of each well, centrifuged to remove any air bubbles and placed in a Biotek Synergy Mx (Potton, UK) plate reader that had been pre-equilibrated and controlled at 65° C. The plate was then read at 350 nm every minute over a total incubation time of 8 hours. Gen5 software (Biotek software for the plate reader version 2.00.18) was used to calculate the time taken for the A350 nm absorbance to increase by 0.2 adsorption units above a base line. The base line was calculated from the mean of the first 5 data points.

[2] = test system: Human embryonic stem cells (cell lines SAl21 and SA181); experiment: Effect of octanoate on stem cell culture (attachment, growth, undifferentiated state over 5 passages; text summary for both cell lines); format: cell-based; conditions: 8 mM octanoate in 100 g/L albumin
Procedure: The effect of octanoate on stem cell culture was carried out by a contract research organization: Cellartis AB (Gothenburg, Sweden). […] The cell growth over the 5 passages was assessed by monitoring the cell doubling times during consecutive passages in cell production. The doubling times of cultures should be within a range of 28-40 hours, and can be seen as a trend indicator.

| Compound | albumin stability (time for A350 to increase by 0.2 AU) [1] | toxicity to stem cells [2] |
| --- | --- | --- |
| [Cl-].[Cl-].[Mg+2] [MgCl2] | very good | – |
| CCCCCCCC(=O)O [octanoate] | – | toxic to stem cells |
